Calls of active or inactive are those of the source.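 How the source made its calls: active means lipid-stain IC50 at or below a set limit, with nuclear-stain toxicity IC50 at least five times higher; inactive means the rest.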 Some results are limits rather than exact numbers.

One assay relates to DAPI. Briefly: triacylglycerol accumulation inhibitor potency, dose response, cell-based, panel, Nile Red and DAPI fluorescence, H9c2 (AID 651630).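 Further: cells exposed to compound overnight before fixation and staining.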 To be noted: H9c2 cells, DAPI nuclear fluorescence (cytotoxicity counter-readout), oleic acid.
The test system of the next assay is TAG. The description is as above. The settings on record: H9c2 cells, Nile Red TAG fluorescence, oleic acid.

Turning to `CO/N=C\CC(=O)Nc1ccc(Oc2ccccc2)cc1`, the IC50 cytotoxicity (DAPI nuclear signal decrease) in the assay with DAPI (mean of runs) is > 25 µM (inactive); with DAPI (run 1), above 25 µM; with DAPI (run 2), above 25 µM. For the same molecule, the values for the IC50 with TAG (mean of runs), in the assay on TAG (run 1) and in the assay with TAG (run 2) were 7.97 µM, 9.14 µM and 6.8 µM, respectively.
Regarding `CC1(C)CC(=O)C2=C(C1)Oc1nc3ccccc3cc1C2C(C#N)C#N` (centres undefined), the IC50 cytotoxicity (DAPI nuclear signal decrease) with DAPI (mean of runs) is 12.7 µM (inactive); in the assay with DAPI (run 1) it was 11.4 µM; in the assay on DAPI (run 2), 14 µM. In addition, the IC50 with TAG (mean of runs) is 17.2 µM (inactive); in the assay on TAG (run 1), 16.5 µM; in the assay with TAG (run 2), 17.8 µM.
Take `Clc1cccc(Nc2nc(-c3ccncc3)cs2)c1`: the IC50 cytotoxicity (DAPI nuclear signal decrease) was > 25 µM (inactive) in the assay with DAPI (mean of runs), above 25 µM in the assay with DAPI (run 1) and above 25 µM with DAPI (run 2). In addition, the figures for the IC50 with TAG (mean of runs), in the assay with TAG (run 1) and in the assay with TAG (run 2) were > 25 µM (inactive), above 25 µM and above 25 µM, respectively.
As for `COc1ccc(-c2cnnc(N/N=C/c3ccc(-c4ccc([N+](=O)[O-])cc4)o3)n2)cc1`, the IC50 cytotoxicity (DAPI nuclear signal decrease) in the assay on DAPI (mean of runs) is > 25 µM (inactive); in the assay with DAPI (run 1) it was above 25 µM; in the assay with DAPI (run 2), above 25 µM. For the same molecule, the half-inhibitory concentration (IC50) with TAG (mean of runs) was 11 µM; in the assay with TAG (run 1) it was 11.6 µM; in the assay with TAG (run 2), 10.4 µM.
As to `O=C1c2ccccc2C(=O)c2c1cccc2N1CCN(C/C=C/c2ccccc2)CC1`, the IC50 cytotoxicity (DAPI nuclear signal decrease) in the assay with DAPI (mean of runs) is > 25 µM (inactive); with DAPI (run 1), above 25 µM; in the assay on DAPI (run 2) it was above 25 µM. The concentration for half-maximal inhibition (IC50) in the assay with TAG (run 1) was 23.1 µM; with TAG (run 2) it was above 25 µM.
On to `COc1cc(C2=NOC(C(=O)NCc3cccs3)C2)cc(OC)c1OC` (centres undefined), for which the IC50 cytotoxicity (DAPI nuclear signal decrease) was > 25 µM (inactive) in the assay on DAPI (mean of runs), above 25 µM in the assay on DAPI (run 1) and above 25 µM with DAPI (run 2). The IC50 with TAG (mean of runs) is 13.7 µM; in the assay on TAG (run 1), 17.3 µM; in the assay on TAG (run 2), 10.1 µM.
Take `CCCC1O[C@@H]2C[C@H]3[C@@H]4CCC5=CC(=O)C=C[C@]5(C)[C@H]4[C@@H](O)C[C@]3(C)[C@]2(C(=O)CO)O1` (some centres undefined): the IC50 cytotoxicity (DAPI nuclear signal decrease) in the assay with DAPI (run 1) and in the assay on DAPI (run 2) was above 25 µM each time. Besides, the 50% inhibitory concentration (IC50) in the assay with TAG (mean of runs) is 3.49 µM; in the assay with TAG (run 1), 3.52 µM; with TAG (run 2), 3.46 µM.
As to `Cn1cc(CN2CCC(C(=O)NC(c3ccc(F)cc3)c3ccc4ccccc4n3)CC2)c2ccccc21` (centres undefined), the IC50 cytotoxicity (DAPI nuclear signal decrease) was 13.7 µM (inactive) with DAPI (mean of runs), 14.5 µM in the assay on DAPI (run 1) and 13 µM in the assay on DAPI (run 2). Moreover, the IC50 in the assay on TAG (mean of runs) is 10.3 µM; in the assay with TAG (run 1), 9.38 µM; with TAG (run 2) it was 11.2 µM.
With `CCN1C(=O)[C@H]2[C@@H](c3ccc(-c4ccccc4)c(OC)c3)N[C@@](CC(C)C)(C(=O)OC)[C@H]2C1=O`, the IC50 cytotoxicity (DAPI nuclear signal decrease) in the assay on DAPI (mean of runs) was > 25 µM (inactive); in the assay on DAPI (run 1), above 25 µM; with DAPI (run 2), above 25 µM. Further, the IC50 in the assay on TAG (mean of runs) is 10.3 µM; with TAG (run 1), 12.4 µM; with TAG (run 2) it was 8.14 µM.
With `CCN(CC)c1ccc(/C=C2\CCC(/C=C(/C#N)C(=O)Nc3ccccc3F)=C2N2CCOCC2)cc1`, the IC50 cytotoxicity (DAPI nuclear signal decrease) with DAPI (run 1) and with DAPI (run 2) was above 25 µM in each case. Further, the IC50 in the assay with TAG (mean of runs), in the assay on TAG (run 1) and in the assay on TAG (run 2) was below 0.78 µM in each case.
On to `COc1cc2c(cc1[N+](=O)[O-])-c1ccc([N+](=O)[O-])cc1C2=NNC(N)=S`, for which the IC50 cytotoxicity (DAPI nuclear signal decrease) is > 25 µM (inactive) in the assay with DAPI (mean of runs), above 25 µM in the assay on DAPI (run 1) and above 25 µM in the assay with DAPI (run 2). In addition, the values for the IC50 in the assay with TAG (mean of runs), with TAG (run 1) and with TAG (run 2) were > 25 µM (inactive), above 25 µM and above 25 µM, respectively.
Regarding `CCCCOc1ccc(CSC2=NCCN2)cc1[N+](=O)[O-]`, the IC50 cytotoxicity (DAPI nuclear signal decrease) in the assay on DAPI (mean of runs) is > 25 µM (inactive); in the assay with DAPI (run 1), above 25 µM; in the assay on DAPI (run 2) it was above 25 µM. The IC50 is > 25 µM (inactive) in the assay with TAG (mean of runs), above 25 µM in the assay on TAG (run 1) and above 25 µM in the assay with TAG (run 2).
In the case of `COc1cc(-c2cnc3c(NC=O)cc(-c4cccc(NC(C)=O)c4)cn23)cc(OC)c1OC`, the IC50 cytotoxicity (DAPI nuclear signal decrease) with DAPI (mean of runs) is > 25 µM (inactive); in the assay on DAPI (run 1), above 25 µM; in the assay with DAPI (run 2), above 25 µM. Moreover, the results for the IC50 in the assay with TAG (mean of runs), in the assay with TAG (run 1) and with TAG (run 2) were 5.44 µM, 4.6 µM and 6.28 µM, respectively.
As for `COc1cc2c(c(OC)c1OC)-c1ccc(O)cc1C(NC(C)=O)CC2` (centres undefined), the values for the IC50 cytotoxicity (DAPI nuclear signal decrease) in the assay with DAPI (mean of runs), in the assay on DAPI (run 1) and in the assay on DAPI (run 2) were > 25 µM (inactive), above 25 µM and above 25 µM, respectively. Moreover, the IC50 in the assay on TAG (mean of runs) was > 25 µM (inactive); in the assay on TAG (run 1), above 25 µM; in the assay on TAG (run 2), above 25 µM.
With `O=C1c2ccccc2C(=O)c2c1ccc(C(=O)N1CCCCC1)c2NCCO`, the IC50 cytotoxicity (DAPI nuclear signal decrease) in the assay on DAPI (run 1) and in the assay on DAPI (run 2) was above 25 µM in each case. Further, the IC50 was 3.42 µM in the assay with TAG (mean of runs), 3.47 µM in the assay with TAG (run 1) and 3.38 µM in the assay on TAG (run 2).
Regarding `C[C@H]1CN([C@@H](C)CO)C(=O)Cc2cc(NC(=O)CCC(F)(F)F)ccc2O[C@H]1CN(C)S(=O)(=O)c1ccc(Cl)cc1`, the figures for the IC50 cytotoxicity (DAPI nuclear signal decrease) with DAPI (mean of runs), in the assay with DAPI (run 1) and with DAPI (run 2) were > 25 µM (inactive), above 25 µM and above 25 µM, respectively. For the same molecule, the IC50 is > 25 µM (inactive) with TAG (mean of runs), above 25 µM with TAG (run 1) and above 25 µM with TAG (run 2).
With `c1ccc(Oc2nc(-c3ccccn3)nc3ccccc23)cc1`, the results for the IC50 cytotoxicity (DAPI nuclear signal decrease) in the assay on DAPI (mean of runs), in the assay on DAPI (run 1) and in the assay with DAPI (run 2) were > 25 µM (inactive), above 25 µM and above 25 µM, respectively. Also, the IC50 was > 25 µM (inactive) with TAG (mean of runs), above 25 µM in the assay with TAG (run 1) and above 25 µM in the assay with TAG (run 2).
As for `C[C@]12c3[nH]c4ccccc4c3CCN1C(=O)C(CC(=O)NCC13CC4CC(CC(C4)C1)C3)C[C@@H]2C(=O)N1CCCCC1` (some centres undefined), the IC50 cytotoxicity (DAPI nuclear signal decrease) in the assay with DAPI (mean of runs) is > 25 µM (inactive); in the assay on DAPI (run 1), above 25 µM; in the assay with DAPI (run 2), above 25 µM. Further, the IC50 with TAG (mean of runs) is 14.6 µM; with TAG (run 1), 14.8 µM; in the assay on TAG (run 2), 14.4 µM.
For `CCN1CCN(Cc2ccc(NC(=O)c3cc(NC(=O)C(=O)c4c[nH]c5ccccc45)cc(OC)c3)cc2C(F)(F)F)CC1`, the values for the IC50 cytotoxicity (DAPI nuclear signal decrease) with DAPI (mean of runs), in the assay on DAPI (run 1) and in the assay with DAPI (run 2) were 23.4 µM (inactive), 23.4 µM and 23.4 µM, respectively. Besides, the results for the IC50 with TAG (mean of runs), with TAG (run 1) and in the assay with TAG (run 2) were 5.76 µM, 5.58 µM and 5.93 µM, respectively.
On to `O=C(/C=C/c1ccc(OCCCF)cc1)NCc1ccc(Cl)c(Cl)c1`, for which the IC50 cytotoxicity (DAPI nuclear signal decrease) with DAPI (mean of runs) is > 25 µM (inactive); in the assay with DAPI (run 1) it was above 25 µM; in the assay on DAPI (run 2), above 25 µM. Besides, the IC50 with TAG (run 1) is above 25 µM; in the assay on TAG (run 2) it was 21.3 µM.
As to `COc1cc(C#Cc2c(-c3cncn3C)n(C)c3ccc(-c4ccc5[nH]ccc5c4)cc23)cc(OC)c1`, the IC50 cytotoxicity (DAPI nuclear signal decrease) with DAPI (run 1) and with DAPI (run 2) was above 25 µM each time. Also, the IC50 with TAG (mean of runs) was 4.19 µM; in the assay on TAG (run 1), 3.78 µM; with TAG (run 2), 4.6 µM.
`O=C(N/N=C/c1ccc2c(c1)OCO2)c1cc(-c2ccncc2)nc2ccccc12`: the IC50 cytotoxicity (DAPI nuclear signal decrease) with DAPI (mean of runs) was > 25 µM (inactive); with DAPI (run 1), above 25 µM; with DAPI (run 2) it was above 25 µM. Further, the IC50 is 14.7 µM with TAG (mean of runs), 16.8 µM in the assay with TAG (run 1) and 12.6 µM in the assay on TAG (run 2).
`CCC(C)NCCOCCOc1ccc(Cl)c2ccccc12` (centres undefined): the figures for the IC50 cytotoxicity (DAPI nuclear signal decrease) with DAPI (mean of runs), in the assay on DAPI (run 1) and in the assay with DAPI (run 2) were > 25 µM (inactive), above 25 µM and above 25 µM, respectively. Besides, the IC50 in the assay on TAG (run 1) is above 25 µM; with TAG (run 2), 17.7 µM.
With `Cc1nc2c(ccc3nc(NC(=O)Cc4cccc5ccccc45)sc32)s1`, the IC50 cytotoxicity (DAPI nuclear signal decrease) in the assay with DAPI (mean of runs) was > 25 µM (inactive); with DAPI (run 1), above 25 µM; with DAPI (run 2), above 25 µM. In addition, the figures for the IC50 in the assay on TAG (mean of runs), in the assay with TAG (run 1) and in the assay on TAG (run 2) were 13.3 µM, 11.5 µM and 15.1 µM, respectively.
On to `CC(C)C[C@H]1CNC(=S)N1CC1CCCN1C[C@H](CC(C)C)N1C[C@H](CC(C)C)N(CC2CCCCCC2)C1=S` (some centres undefined), for which the IC50 cytotoxicity (DAPI nuclear signal decrease) in the assay on DAPI (mean of runs) was > 25 µM (inactive); in the assay with DAPI (run 1), above 25 µM; with DAPI (run 2), above 25 µM. Further, the IC50 in the assay with TAG (mean of runs) was > 25 µM (inactive); in the assay with TAG (run 1), above 25 µM; with TAG (run 2), above 25 µM.
As for `Cc1ccc(-n2cc(CNCCCn3cccn3)c(-c3cccc(C)c3)n2)cc1`, the results for the IC50 cytotoxicity (DAPI nuclear signal decrease) with DAPI (mean of runs), in the assay on DAPI (run 1) and in the assay with DAPI (run 2) were > 25 µM (inactive), above 25 µM and above 25 µM, respectively. Besides, the results for the IC50 in the assay on TAG (mean of runs), in the assay on TAG (run 1) and in the assay on TAG (run 2) were > 25 µM (inactive), above 25 µM and above 25 µM, respectively.
`CSc1cc(-c2ccccc2)n(Cc2c(Cl)cccc2Cl)c(=O)c1C#N`: the IC50 cytotoxicity (DAPI nuclear signal decrease) in the assay with DAPI (mean of runs) was > 25 µM (inactive); in the assay on DAPI (run 1) it was above 25 µM; in the assay on DAPI (run 2), above 25 µM. Further, the figures for the IC50 with TAG (run 1) and in the assay with TAG (run 2) were 17.9 µM and above 25 µM, respectively.

The values above are taken from PubChem BioAssay AID651630 (Sanford-Burnham Center for Chemical Genomics, 2012).
